The numbers were not newly measured in paper PMC9076486 (RSC Advances, 2019), which cites them from elsewhere.

For orientation: IC50 means the concentration needed to halve the response being measured.

This data set deals with superoxide anions. Conditions: pH 7.4; for IC50: read-out: IC50 (SOD activity).

Take `[Cu+2].[O-][Cl+3]([O-])([O-])[O-].[O-][Cl+3]([O-])([O-])[O-]` [Cu(ClO4)2, copper(II) perchlorate]: the “k cat (SOD activity)” value is listed as 2.7 10^6 M^−1 s^−1 and the IC50 is 1.1 µM.

Consider “CuZn–SOD: native copper–zinc superoxide dismutase enzyme, value from ref. 42”, for which the “k cat (SOD activity)” value is given as 430 10^6 M^−1 s^−1 and the IC50 is 0.01 µM.
